This data set can be described thus: logP. It is filed as physicochemical.

Structures are written as SMILES.

Broadly, the logP is the decadic logarithm of the partition coefficient of the neutral form, usually between octanol and water. A low value points to a more hydrophilic compound. `CC(N(C(=O)c1cn(C)nc1C(F)F)C1CC1)C1(O)CCCc2ccccc21` (centres unmarked) [I.10, N-cyclopropyl-3-(difluoromethyl)-N-[1-(1-hydroxy-1,2,3,4-tetrahydronaphthalen-1-yl)ethyl]-1-methyl-1H-pyrazole-4-carboxamide] gave a logP of 2.94.
The same measure for `Cc1nn(C)c(F)c1C(=S)N(C1CC1)C(C)C1CCCc2ccccc21` (centres unmarked) [I.3, N-cyclopropyl-5-fluoro-1,3-dimethyl-N-[1-(1,2,3,4-tetrahydronaphthalen-1-yl)ethyl]-1H-pyrazole-4-carbothioamide]: 4.39.
